The text below walks through data of patent US20220054465A1, “(PYRIDIN-2-YL)AMINE DERIVATIVES AS TGF-BETA R1 (ALK5) INHIBITORS FOR THE TREATMENT OF CANCER” (Nexys Therapeutics, Inc., priority 2018, published 2022).

By IC50 is commonly meant the point on the concentration scale where inhibition reaches its midpoint. Lower therefore signals inhibition by little substance.

In the experiment the test system is HEK-Blue TGFβ cell. The experiment is described as follows: HEK-Blue TGFβ cellular reporter gene assay (SEAP readout). Format: cell-based. The following applies: HEK-Blue TGFβ cells stimulated with TGF-β, 22-23 h incubation, SEAP read at 630 nm. The procedure: HEK-Blue TGFβ Cellular Reporter Gene Assay:
HEK-Blue TGFβ cell was purchased from Invivogen. Cell suspension of 2.5×10^5 cells/ml was prepared using Test Medium (DMEM containing 0.5% v/v heat-inactivated FBS). TGF-β working solution (6 ng/ml) was obtained through diluting TGF-β stock solution (10 μg/ml) by Test Medium before use. Eight different concentrations of all compounds were obtained by 3× gradient dilution method using TGF-β working solution. Add 100 μl of Test Medium (Vehicle) or test article or TGF-β working solution per well of a flat-bottom 96-well plate. Add 100 μl of HEK-Blue TGF-β cell suspension per well. Incubate the plate at 37° C. in a CO2 incubator for 22-23 h. Add 150 μl of resuspended QUANTI-Blue per well of a new flat-bottom 96-well plate. Add 30 μl of induced HEK-Blue TGF-β cells supernatant. Avoid pipetting at the bottom of wells. Incubate the plate at 37° C. incubator for 30-40 min. Determine secreted embryonic alkaline phosphatase (SEAP) levels using a spectrophotometer at 630 nm.
The inhibition was calculated using the equation: […]
Turning to `O=C(O)C(F)(F)c1cccc(Nc2cc(Oc3cn(C4CC4)nc3-c3ccccc3)ccn2)c1` [Example 132, 2-(3-((4-((1-cyclopropyl-3-phenyl-1H-pyrazol-4-yl)oxy)pyridin-2-yl)amino)phenyl)-2,2-difluoroacetic acid], the IC50 was over 10000 nM. `CCc1ccc(Oc2ccnc(Nc3cccc(CC(C)(C)C(=O)O)c3)c2)c(C)n1` [Example 133, 3-(3-((4-((6-ethyl-2-methylpyridin-3-yl)oxy)pyridin-2-yl)amino)phenyl)-2,2-dimethylpropanoic acid] yielded a 50% inhibitory concentration (IC50) of 28 nM.

In turn, `Cc1cc(Nc2cc(Oc3cc(C)c(C)nc3-c3ccccn3)ccn2)cc(C(C)(C)C(=O)O)c1` [Example 134] returned an IC50 of 78 nM. Compared with the last molecule, the IC50 is about 2.8-fold higher. The figure for `Cc1ccc(Nc2cc(Oc3cc(C)c(C)nc3-c3ccccn3)ccn2)cc1C(C)(C)C(=O)O` [Example 136] is 100 nM; for `Cc1cc(Oc2ccnc(Nc3cccc(CC(C)(C)C(=O)O)c3)c2)c(-c2ccccn2)nc1C` [Example 137] it is 71 nM. For the molecule `CCc1ccc(Oc2ccnc(Nc3cccc(CCC(=O)O)c3)c2)c(-c2ccccn2)n1` [Example 138], half-maximal inhibition (IC50) was put at 49 nM. `CCc1nc(-c2ccccn2)c(Oc2ccnc(Nc3cccc(CCC(=O)O)c3)c2)cc1C` [Example 139] had an IC50 of 42 nM.

`Cc1ccc(Oc2ccnc(Nc3cccc(CC(C)(C)C(=O)O)c3)c2)c(-c2ccccc2)n1` [Example 140] showed an IC50 of 35 nM. The figure for `Cc1cc(CC(C)(C)C(=O)O)cc(Nc2cc(Oc3ccc(C)nc3-c3ccccc3)ccn2)c1` [Example 141] is 12 nM; for `Cc1cc(Nc2cc(Oc3ccc(C)nc3-c3ccccc3)ccn2)cc(C(C)(C)C(=O)O)c1` [Example 142] it is 7 nM; for `Cc1cc(Nc2cc(Oc3cc(C)c(C)nc3C3CCOCC3)ccn2)cc(C(C)(C)C(=O)O)c1` [Example 143] it is 130 nM. Regarding `CCc1ccc(Oc2ccnc(Nc3cc(C)cc(C(C)(C)C(=O)O)c3)c2)c(C)n1` [Example 144], half-maximal inhibition (IC50) was put at 75 nM. The figure for `CCc1ccc(Oc2ccnc(Nc3cc(C)cc(CC(C)(C)C(=O)O)c3)c2)c(C)n1` [Example 145] is 33 nM. `CCc1ccc(Oc2ccnc(Nc3cccc(CCC(=O)O)c3)c2)c(C)n1` [Example 146] yielded an IC50 of 21 nM. As for `CCc1ccc(Oc2ccnc(Nc3cc(C)cc(CCC(=O)O)c3)c2)c(C)n1` [Example 147], the figure is 25 nM; as for `CCc1nc(C)c(Oc2ccnc(Nc3cc(C)cc(C(C)(C)C(=O)O)c3)c2)cc1C` [Example 148], 34 nM.

In turn, `CCc1nc(C)c(Oc2ccnc(Nc3cccc(CCC(=O)O)c3)c2)cc1C` [Example 149] gave an IC50 of 21 nM.

`CCc1nc(C)c(Oc2ccnc(Nc3cc(C)cc(CCC(=O)O)c3)c2)cc1C` [Example 150] had an IC50 of 27 nM.

For `CCc1nc(C)c(Oc2ccnc(Nc3cccc(CC(C)(C)C(=O)O)c3)c2)cc1C` [Example 151], the midpoint of inhibition, the IC50, lay at 30 nM. The IC50 values of the last two molecules are within 1.5-fold of each other. The figure for `CCc1nc(C)c(Oc2ccnc(Nc3cc(C)cc(CC(C)(C)C(=O)O)c3)c2)cc1C` [Example 152] is 20 nM.

With `CCc1nc(C)c(Oc2ccnc(Nc3cc(C)cc(C(C)(C)C(=O)O)c3)c2)cc1Cl` [Example 153], the midpoint of inhibition, the IC50, lay at 70 nM. The figure for `CCc1nc(C)c(Oc2ccnc(Nc3cccc(CCC(=O)O)c3)c2)cc1Cl` [Example 154] is 16 nM; for `CCc1nc(C)c(Oc2ccnc(Nc3cccc(CC(C)(C)C(=O)O)c3)c2)cc1Cl` [Example 155] it is 30 nM.

With `CCc1nc(C)c(Oc2ccnc(Nc3cc(C)cc(CC(C)(C)C(=O)O)c3)c2)cc1Cl` [Example 156], the midpoint of inhibition, the IC50, lay at 23 nM. The figure for `Cc1cc(Nc2cc(Oc3cc(Cl)c(C)nc3C)ccn2)cc(C(C)(C)C(=O)O)c1` [Example 157] is 27 nM. As for `Cc1cc(CC(C)(C)C(=O)O)cc(Nc2cc(Oc3cc(Cl)c(C)nc3C)ccn2)c1` [Example 158], the figure is 37 nM. As for `CC(C)(C(=O)CO)c1cccc(Nc2cc(Oc3cn(C4CC4)nc3C3CCOCC3)ccn2)c1` [Example 159], the figure is 140 nM; as for `CC(C)(Cc1cccc(Nc2cc(Oc3cn(C4CC4)nc3C3CCOCC3)ccn2)c1)C(=O)O` [Example 160], 210 nM.

For `Cc1cc(CC(C)(C)C(=O)O)cc(Nc2cc(Oc3cn(C4CC4)nc3C3CCOCC3)ccn2)c1` [Example 162], inhibition was half-maximal at 120 nM (IC50).

`O=C(O)Cc1cccc(Nc2cc(Oc3cn(C4CC4)nc3C3CCOCC3)ccn2)c1` [Example 163] gave a 50% inhibitory concentration (IC50) of 3600 nM. As for `Cc1cc(CC(=O)O)cc(Nc2cc(Oc3cn(C4CC4)nc3C3CCOCC3)ccn2)c1` [Example 164], the figure is 1110 nM; as for `Cc1cc(Nc2cc(Oc3cn(C(C)C)nc3C3CCOCC3)ccn2)cc(C(C)(C)C(=O)O)c1` [Example 167], 620 nM; as for `CC(C)(Cc1cccc(Nc2cc(Oc3cn(C4CC4)nc3-c3ccccc3)ccn2)c1)C(=O)O` [Example 168], 210 nM. The molecule `Cc1cc(Nc2cc(Oc3cn(C4CC4)nc3-c3ccccc3)ccn2)cc(C(C)(C)C(=O)O)c1` [Example 169] came in with an IC50 of 7 nM. With `Cc1cc(CC(C)(C)C(=O)O)cc(Nc2cc(Oc3cn(C4CC4)nc3-c3ccccc3)ccn2)c1` [Example 170], the IC50 amounted to 14 nM. Compared with the last molecule, the IC50 is about 2-fold higher.

Consider `O=C(O)CCc1cccc(Nc2cc(Oc3cn(C4CC4)nc3-c3ccccc3)ccn2)c1` [Example 171], for which 16 nM corresponded to half-maximal inhibition (IC50). As for `Cc1cc(Nc2cc(Oc3cn(C4CCC4)nc3-c3ccccc3)ccn2)cc(C(C)(C)C(=O)O)c1` [Example 172], the figure is 120 nM; as for `O=C(O)CCc1cccc(Nc2cc(Oc3cn(C4CCC4)nc3-c3ccccc3)ccn2)c1` [Example 173], 26 nM. `CCc1nc(C)c(Oc2ccnc(Nc3cccc(CC4(C(=O)O)COC4)c3)c2)cc1C` [Example 174, 3-(3-((4-((6-ethyl-2,5-dimethylpyridin-3-yl)oxy)pyridin-2-yl)amino)benzyl)oxetane-3-carboxylic acid] showed an IC50 of 57 nM. This IC50 lies about 2.2-fold higher than the previous one. The figure for `Cc1cc(Oc2ccnc(Nc3cccc(CC(C)(C)c4nn[nH]n4)c3)c2)c(-c2ccccn2)nc1C` [Example 176] is 150 nM; for `COc1ccc(Nc2cc(Oc3cc(C)c(C)nc3-c3ccccn3)ccn2)cc1CCc1nn[nH]n1` [Example 177] it is 150 nM; for `COc1cc(CCc2nn[nH]n2)cc(Nc2cc(Oc3cc(C)c(C)nc3-c3ccccn3)ccn2)c1` [Example 178] it is 210 nM. The figure for `Cc1cc(Oc2ccnc(Nc3cc(F)cc(CCc4nn[nH]n4)c3)c2)c(-c2ccccn2)nc1C` [Example 179] is 170 nM; for `Cc1cc(Oc2ccnc(Nc3cc(Cl)cc(CCc4nn[nH]n4)c3)c2)c(-c2ccccn2)nc1C` [Example 180] it is 79 nM; for `CCc1cc(Oc2ccnc(Nc3cccc(CCc4nn[nH]n4)c3)c2)c(-c2ccccn2)nc1C` [Example 181] it is 210 nM. The figure for `Cc1nc(-c2ccccn2)c(Oc2ccnc(Nc3cccc(CCc4nn[nH]n4)c3)c2)cc1C1CC1` [Example 182] is 640 nM. In turn, `Cc1nc(-c2ccccn2)c(Oc2ccnc(Nc3cccc(CCc4nn[nH]n4)c3)c2)cc1C(C)C` [Example 183] registered an IC50 of 240 nM. As for `COc1ccc(Nc2cc(Oc3ccc(C)nc3-c3ccccn3)ccn2)cc1CCc1nn[nH]n1` [Example 184], the figure is 330 nM; as for `CCc1nc(-c2ccccn2)c(Oc2ccnc(Nc3cccc(CCc4nn[nH]n4)c3)c2)cc1C` [Example 185], 39 nM. As for `CCc1nc(C)c(Oc2ccnc(Nc3cc(C)cc(CCc4nn[nH]n4)c3)c2)cc1Cl` [Example 186], the figure is 51 nM; as for `CCc1ccc(Oc2ccnc(Nc3cc(C)cc(CCc4nn[nH]n4)c3)c2)c(C)n1` [Example 187], 27 nM; as for `Cc1cc(Oc2ccnc(Nc3cccc(CCc4nn[nH]n4)c3)c2)c(C)nc1C` [Example 188], 73 nM. The figure for `Cc1cc(CCc2nn[nH]n2)cc(Nc2cc(Oc3cc(Cl)c(C)nc3C)ccn2)c1` [Example 189] is 24 nM.

Take `CCc1nc(C)c(Oc2ccnc(Nc3cc(C)cc(CCc4nn[nH]n4)c3)c2)cc1C` [Example 190]: the IC50 was determined as 6 nM. As for `Cc1ccc(Oc2ccnc(Nc3cccc(CCc4nn[nH]n4)c3)c2)c(C2CCOCC2)n1` [Example 191], the figure is 3690 nM; as for `Cc1ccc(Oc2ccnc(Nc3cccc(CC(C)(C)c4nn[nH]n4)c3)c2)c(-c2ccccc2)n1` [Example 192], 65 nM; as for `c1cc(Cc2nn[nH]n2)cc(Nc2cc(Oc3cn(C4CC4)nc3C3CCOCC3)ccn2)c1` [Example 193], over 10000 nM. The molecule `Cc1cc(Cc2nn[nH]n2)cc(Nc2cc(Oc3cn(C4CC4)nc3C3CCOCC3)ccn2)c1` [Example 194] registered an IC50 of 4140 nM.

For `CC(C)(c1cccc(Nc2cc(Oc3cn(C4CC4)nc3C3CCOCC3)ccn2)c1)c1nn[nH]n1` [Example 195], it took 2230 nM to reach half-maximal inhibition (IC50). In the case of `Cc1cc(Nc2cc(Oc3cn(C4CC4)nc3C3CCOCC3)ccn2)cc(C(C)(C)c2nn[nH]n2)c1` [Example 196], the IC50 came to 270 nM. Against the preceding molecule, the IC50 is about 8.3-fold lower. As for `c1ccc(-c2nn(C3CC3)cc2Oc2ccnc(Nc3cccc(CCc4nn[nH]n4)c3)c2)cc1` [Example 197], the figure is 35 nM; as for `c1ccc(-c2nn(C3CC3)cc2Oc2ccnc(Nc3cccc(Cc4nn[nH]n4)c3)c2)cc1` [Example 198], 110 nM.
